One may read the melting point as the temperature of the solid-liquid transition. As a reminder, the IC50 is the concentration at which inhibition is half-maximal.

We go through 52 molecules from patent US20080312435A1, “Imine Compound” (TAISHO PHARMACEUTICAL CO., LTD., priority 2004, published 2008).

Series [1] addresses T1, human CB2 receptor (Homo sapiens, UniProt P34972).
T1 construct: expressed in transfected cells
Briefly: Human CB2 receptor binding inhibition test ([3H]CP-55,940, CHO membrane fractions). The settings on record: [3H]CP-55,940, membrane fractions of CHO cells stably expressing human CB2 receptor, 25° C., 2 hours; read-out: CB2 IC50 (Inhibition of binding to human CB2 receptor). The method, boiled down: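 Membranes from CHO-DHFR(−) cells stably expressing human CB2 used for [3H]CP-55,940 binding; filter-bound radioactivity counted by scintillation after washes with 0.1% BSA buffer. Nonspecific binding defined with 2.0 μM CP-55,940; IC50 for inhibition of specific binding.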

T1 sequence (P34972 whole entry): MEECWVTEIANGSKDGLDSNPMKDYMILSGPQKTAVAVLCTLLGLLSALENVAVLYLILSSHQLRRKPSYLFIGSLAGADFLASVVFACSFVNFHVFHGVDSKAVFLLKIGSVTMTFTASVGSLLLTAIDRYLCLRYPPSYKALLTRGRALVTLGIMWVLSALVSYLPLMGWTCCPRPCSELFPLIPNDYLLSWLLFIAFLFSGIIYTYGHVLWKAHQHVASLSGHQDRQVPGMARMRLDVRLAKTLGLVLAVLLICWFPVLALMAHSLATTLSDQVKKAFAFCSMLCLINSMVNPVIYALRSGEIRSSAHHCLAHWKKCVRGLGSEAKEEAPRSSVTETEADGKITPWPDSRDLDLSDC

`CCn1c(C)c(C(C)(C)C)s/c1=N\C(=O)c1cc(Cl)ccc1OC` [compound 167] had a melting point of 108 to 109 °C. Moreover, in series [1], the IC50 was determined as 4.6 nM.
In the same order, the values of `CCn1c(C)c(C(C)(C)C)s/c1=N\C(=O)c1cnccc1C(F)(F)F` [compound 170] are 110 to 112 °C and 13.8 nM.
`CCn1c(C)c(C(C)(C)C)s/c1=N\C(=O)c1cc(C(F)(F)F)ccc1OC(F)F` [compound 174] gave a melting point of 95 to 97 °C. Also, in series [1], the IC50 was 11.7 nM.
As to `Cc1cccc(C(=O)/N=c2\sc(C(C)(C)C)c(C)n2CC2CC2)c1` [compound 179], the melting point fell in the range of 132 to 134 °C. Further, in series [1], the IC50 came out at 17.8 nM.
On to `Cc1c(C(C)(C)C)s/c(=N\C(=O)c2ccccc2F)n1CC1CC1` [compound 185], for which the melting point was in the range of 182 to 183 °C. For the same molecule, the half-inhibitory concentration (IC50) in series [1] was 11 nM.
In the same order, the values of `Cc1c(C(C)(C)C)s/c(=N\C(=O)c2cccc(I)c2)n1CC1CC1` [compound 192] are 114 to 115 °C and 13.2 nM.
The like results for `COc1cccc(C(=O)/N=c2\sc(C(C)(C)C)c(C)n2CC2CC2)c1` [compound 194] were, in that order, 108 to 109 °C and 19.1 nM.
For the molecule `Cc1c(C(C)(C)C)s/c(=N\C(=O)c2cccc(OC(F)(F)F)c2)n1CC1CC1` [compound 196], the melting point was 106 to 108 °C. The concentration for half-maximal inhibition (IC50) in series [1] worked out at 7.6 nM.
In the case of `Cc1c(C(C)(C)C)s/c(=N\C(=O)c2cccc(OC(F)(F)C(F)F)c2)n1CC1CC1` [compound 198], the melting point lay within 109 to 111 °C. In addition, the IC50 in series [1] turned out to be 2.7 nM.
For `CNc1ccccc1C(=O)/N=c1\sc(C(C)(C)C)c(C)n1CC1CC1` [compound 200], the melting point lay in the range of 158 to 159 °C. Besides, the IC50 in series [1] is 15.1 nM.
The molecule `Cc1c(C(C)(C)C)s/c(=N\C(=O)c2cccc(N(C)C)c2)n1CC1CC1` [compound 201] yielded a melting point of 128 to 130 °C. Also, in series [1], the IC50 came out at 19.1 nM.
Molecule `Cc1c(C(C)(C)C)s/c(=N\C(=O)c2cccc([N+](=O)[O-])c2)n1CC1CC1` [compound 209] had a melting point of 87 to 89 °C. In addition, the IC50 in series [1] is 1.4 nM.
Regarding `Cc1c(C(C)(C)C)s/c(=N\C(=O)c2ccc(C#N)cc2)n1CC1CC1` [compound 210], the melting point lay in the range of 125 to 126 °C. In addition, the IC50 in series [1] came to 15.7 nM.
The like results for `Cc1ccc(C(=O)/N=c2\sc(C(C)(C)C)c(C)n2CC2CC2)c(C)c1` [compound 216] were, in that order, 100 to 101 °C and 1.7 nM.
In the same order, the values of `Cc1ccc(C)c(C(=O)/N=c2\sc(C(C)(C)C)c(C)n2CC2CC2)c1` [compound 217] are 106 to 107 °C and 2.6 nM.
With `Cc1cccc(C)c1C(=O)/N=c1\sc(C(C)(C)C)c(C)n1CC1CC1` [compound 218], the melting point lay within 98 to 100 °C. Besides, the IC50 in series [1] is 5.7 nM.
In the same order, the values of `Cc1c(C(C)(C)C)s/c(=N\C(=O)c2cc(C(F)(F)F)ccc2C(F)(F)F)n1CC1CC1` [compound 220] are 159 to 161 °C and 3.9 nM.
In turn, `Cc1c(C(C)(C)C)s/c(=N\C(=O)c2cc(F)ccc2F)n1CC1CC1` [compound 221] returned a melting point of 170 to 172 °C. In addition, the IC50 in series [1] amounted to 15.6 nM.
The molecule `Cc1c(C(C)(C)C)s/c(=N\C(=O)c2ccc(F)cc2F)n1CC1CC1` [compound 224] showed a melting point of 111 to 112 °C. Further, the 50% inhibitory concentration (IC50) in series [1] was 13 nM.
On to `Cc1c(C(C)(C)C)s/c(=N\C(=O)c2ccc(Cl)cc2F)n1CC1CC1` [compound 226], for which the melting point lay in the range of 108 to 110 °C. In addition, the IC50 in series [1] amounted to 7.7 nM.
For `Cc1c(C(C)(C)C)s/c(=N\C(=O)c2ccc(Br)cc2F)n1CC1CC1` [compound 227], the melting point lay within 121 to 131 °C. In addition, the half-inhibitory concentration (IC50) in series [1] was 8.2 nM.
In the case of `Cc1c(C(C)(C)C)s/c(=N\C(=O)c2cc(Br)ccc2F)n1CC1CC1` [compound 230], the melting point was 113 to 114 °C. Moreover, in series [1], the IC50 was determined as 1.5 nM.
With `Cc1c(C(C)(C)C)s/c(=N\C(=O)c2cc(I)ccc2F)n1CC1CC1` [compound 231], the melting point was 95 to 96 °C. In addition, the IC50 in series [1] was 3 nM.
In turn, `COc1ccc(OC)c(C(=O)/N=c2\sc(C(C)(C)C)c(C)n2CC2CC2)c1` [compound 234] gave a melting point of 83 to 85 °C. The IC50 in series [1] stood at 0.7 nM.
Turning to `CCOc1ccc(OCC)c(C(=O)/N=c2\sc(C(C)(C)C)c(C)n2CC2CC2)c1` [compound 238], the melting point is 97 to 99 °C. For the same molecule, the IC50 in series [1] was found to be 4.4 nM.
With `Cc1ccc(F)c(C(=O)/N=c2\sc(C(C)(C)C)c(C)n2CC2CC2)c1` [compound 239], the melting point was in the range of 117 to 119 °C. Moreover, the IC50 in series [1] stood at 2.4 nM.
In turn, `Cc1ccc(F)cc1C(=O)/N=c1\sc(C(C)(C)C)c(C)n1CC1CC1` [compound 241] returned a melting point of 91 to 93 °C. In addition, in series [1], the IC50 was determined as 1 nM.
`Cc1cc(Cl)ccc1C(=O)/N=c1\sc(C(C)(C)C)c(C)n1CC1CC1` [compound 242] returned a melting point of 108 to 109 °C. Also, the IC50 in series [1] was 4 nM.
In the same order, the values of `Cc1cccc(Cl)c1C(=O)/N=c1\sc(C(C)(C)C)c(C)n1CC1CC1` [compound 244] are 159 to 160 °C and 3.2 nM.
`Cc1cccc(Br)c1C(=O)/N=c1\oc(C(C)(C)C)c(C)n1CC1CC1` [compound 248] had a melting point of 89 to 90 °C. In series [1], the IC50 came out at 5.6 nM.
As to `Cc1c(C(C)(C)C)s/c(=N\C(=O)c2cc(C(F)(F)F)ccc2F)n1CC1CC1` [compound 251], the melting point was in the range of 113 to 115 °C. For the same molecule, in series [1], the 50% inhibitory concentration (IC50) came out at 3.4 nM.
`Cc1c(C(C)(C)C)s/c(=N\C(=O)c2cc(F)ccc2C(F)(F)F)n1CC1CC1` [compound 254]: the melting point lay in the range of 110 to 112 °C. Further, in series [1], the IC50 came out at 1.4 nM.
`Cc1c(C(C)(C)C)s/c(=N\C(=O)c2cc(C(F)(F)F)ccc2Cl)n1CC1CC1` [compound 257] yielded a melting point of 100 to 102 °C. In series [1], the half-inhibitory concentration (IC50) was 1.3 nM.
With `Cc1c(C(C)(C)C)s/c(=N\C(=O)c2cc(Br)ccc2OC(F)F)n1CC1CC1` [compound 266], the melting point was 169 to 170 °C. In addition, the IC50 in series [1] came out at 0.8 nM.
In turn, `CCOc1ccc(C(F)(F)F)cc1C(=O)/N=c1\sc(C(C)(C)C)c(C)n1CC1CC1` [compound 268] showed a melting point of 140 to 142 °C. In series [1], the 50% inhibitory concentration (IC50) amounted to 1.1 nM.
`Cc1c(C(C)(C)C)s/c(=N\C(=O)c2cc(C(F)(F)F)ccc2OC(C)C)n1CC1CC1` [compound 269] registered a melting point of 106 to 108 °C. Further, the IC50 in series [1] amounted to 3.6 nM.
`COCCOc1ccc(C(F)(F)F)cc1C(=O)/N=c1\sc(C(C)(C)C)c(C)n1CC1CC1` [compound 270] registered a melting point of 108 to 110 °C. For the same molecule, the IC50 in series [1] turned out to be 0.7 nM.
Consider `Cc1c(C(C)(C)C)s/c(=N\C(=O)C2=C(NCCO)C=CC(C(F)(F)F)C2)n1CC1CC1` (centres unmarked) [compound 272], for which the melting point lay in the range of 131 to 133 °C. Further, the IC50 in series [1] was 5 nM.
As for `CCN(C)c1ccc(C(F)(F)F)cc1C(=O)/N=c1\sc(C(C)(C)C)c(C)n1CC1CC1` [compound 274], the melting point is 101 to 103 °C. Also, the half-maximal inhibitory concentration (IC50) in series [1] came to 13.2 nM.
Consider `Cc1c(C(C)(C)C)s/c(=N\C(=O)c2cc(C(F)(F)F)ccc2N(C)C)n1CC1CC1` [compound 277], for which the melting point is 126 to 128 °C. Also, in series [1], the half-maximal inhibitory concentration (IC50) worked out at 9 nM.
As to `Cc1c(C(C)(C)C)s/c(=N\C(=O)c2ccc(F)c(F)c2F)n1CC1CC1` [compound 282], the melting point lay in the range of 82 to 84 °C. Also, the half-inhibitory concentration (IC50) in series [1] worked out at 14.5 nM.
The like results for `Cc1c(C(C)(C)C)s/c(=N\C(=O)c2cc(F)c(F)cc2F)n1CC1CC1` [compound 283] were, in that order, 78 to 79 °C and 5.9 nM.
The like results for `Cc1c(C(C)(C)C)s/c(=N\C(=O)c2cc(F)c(F)cc2Cl)n1CC1CC1` [compound 284] were, in that order, 112 to 114 °C and 1.2 nM.
In turn, `Cc1c(C(C)(C)C)s/c(=N\C(=O)c2ccc(F)c(Cl)c2F)n1CC1CC1` [compound 285] displayed a melting point of 76 to 77 °C. In addition, the IC50 in series [1] turned out to be 14.2 nM.
With `Cc1ccc(C(=O)/N=c2\sc(C(C)(C)C)c(C)n2CC2CC2)c(F)c1F` [compound 287], the melting point was 122 to 124 °C. For the same molecule, the half-maximal inhibitory concentration (IC50) in series [1] worked out at 13.5 nM.
In turn, `Cc1cccnc1C(=O)/N=c1\sc(C(C)(C)C)c(C)n1CC1CC1` [compound 293] yielded a melting point of 88 to 89 °C. Besides, the IC50 in series [1] amounted to 7 nM.
In the case of `Cc1c(C(C)(C)C)s/c(=N/C(=O)c2cnccc2C(F)(F)F)n1CC1CC1` [compound 298], the melting point was 74 to 76 °C. Further, in series [1], the IC50 amounted to 1.5 nM.
The molecule `Cc1c(C(C)(C)C)s/c(=N/C(=O)c2cccnc2F)n1CC1CC1` [compound 300] registered a melting point of 83 to 84 °C. In series [1], the concentration for half-maximal inhibition (IC50) amounted to 15 nM.
In the same order, the values of `Cc1c(C(C)(C)C)s/c(=N\C(=O)c2nccnc2Cl)n1CC1CC1` [compound 305] are 115 to 116 °C and 3.7 nM.
Regarding `Cc1c(C(C)(C)C)s/c(=N\C(=O)c2cc(Cl)ncc2Cl)n1CC1CC1` [compound 307], the melting point lay in the range of 110 to 112 °C. In series [1], the 50% inhibitory concentration (IC50) was 1 nM.
The molecule `CCOc1ncccc1C(=O)/N=c1\sc(C(C)(C)C)c(C)n1CC1CC1` [compound 310] had a melting point of 102 to 104 °C. The concentration for half-maximal inhibition (IC50) in series [1] was determined as 17.3 nM.
`CSc1ncccc1C(=O)/N=c1\sc(C(C)(C)C)c(C)n1CC1CC1` [compound 312] returned a melting point of 138 to 139 °C. In series [1], the half-maximal inhibitory concentration (IC50) was determined as 14 nM.
